The values that follow come from patent US8653049B2, “Normuramyl glycopeptide compounds” (priority 2008, dated 2014).

Where two headings read alike, the source gives them in different places.

The conditions of series [1]: rabbits, 3 rabbits per group. As for the experimental part:
The test was conducted in an authorised laboratory, ITEST plus s.r.o., Bilé Vchýnice 10, 533 13 Vápno u Prelouce, Czech Republic, according to guide-lines CL 2005.
Rabbits (New Zeeland albino, 4-6 kg, 3 animals per group) were used for testing.
Liposomal preparations of muramyl glycopeptide derivatives were administered s.c. (100 nmol/kg). Empty liposomes were used as negative control and the liposomal as well as the free form of muramyl dipeptide (MDP) (25 μg/kg, corresponding to 50.7 nmol/kg) served as positive control. Temperature was measured in 1, 2, 3, 4,6 and 24 hour intervals.
Empty liposomes were used as negative control; and liposomal as well as free muramyl dipeptide (MDP) (50.7 nmol/kg) served as positive control. B30-norAbu-MDP (MT01, structure on page 5) served as additional control. Temperature was measured in 1, 2, 3, 4, 6 and 24 h intervals. The preparation passed the test if the Sum of ΔTmax remained below 1.1° C. (3 rabbits per group)

The test system of series [2] is bone-marrow cells. Description: Restoration of bone-marrow proliferation in azathioprine-suppressed mice. Also noted: key: +: restoration under the level of intact bone-marrow response; ++: restoration above the level of intact bone-marrow response. As to conditions: two i.v. doses of 200 nmol 30 and 6 h before oral azathioprine 5 mg per mouse; bone marrow 66 h after. In kind it is in vivo, CBA/J mice. The method, then:
CBA/J male mice 8 weeks old, weighing 18-20 g were administered two i.v. doses of 200 nmol test substance per mouse 30 and 6 h prior to oral application of azathioprine (Imuran Wellcome, 5 mg per mouse in a volume of 0.5 ml distilled water). Bone marrow (lavage of femurs) was sampled 66 h after the application of azathioprine. Pooled suspensions of bone-marrow cells from 3 mice were cultivated in RPMI-1640 medium with 5% of fetal bovine serum (both from Sigma) at a concentration of 2×10^5 cells/0.2 ml either without mitogen (spontaneous proliferation) or in the presence of T (phytohemagglutinin, PHA Murex, 50 μg/ml; concanavalin A, Con A Sigma, 1, 2.5 or 5 μg/ml) or B (lipopolysaccharide, LPS E. coli O55 Difco, 5 μg/ml) mitogens for 48 h at 37° C. in 5% CO2. Proliferative activity was measured by incorporation of 3H-thymidine (1 μCi/well) and expressed as stimulation index SI=mean cpm cultures with mitogen/mean cpm controls without mitogen. Statistical significance of stimulation was evaluated by the Student's t test.

For series [3], the system named is myelin basic protein induced EAE. Put plainly: Experimental allergic encephalomyelitis (EAE), Th1 adjuvant activity. The format is in vivo, guinea pigs. The following applies: for Positive animals (%) (incidence of EAE): 50 μg myelin basic protein + 1 mg test compound in FIA, footpads, up to day 21, FCA positive control.
In series [4] the test system is Salmonella enteritidis. Put plainly: Stimulation of innate immunity against Salmonella Enteritidis. The following applies: liposomal, 20 nmol per dose p.o. 72 and 24 h before infection (LD50); 5 mice.
The test system of series [5] is NK sensitive K562 cell line. Description: NK cell cytotoxicity of human PBMC, 51Cr-release against K562. The format is cell-based. The following applies: range 0.1 μM-100 μM; FIG. 28. The method, then:
Ex vivo effects of test compounds on NK cells were evaluated on human peripheral blood mononuclear cells (PBMC). The NK cell cytotoxicity of healthy donors in the presence or absence of test compounds was measured in standard 4 hrs ^51Cr-release assay against NK sensitive K562 cell line in effector (PBMC) to target (K562) ratio 16:1. Test compounds were added at a concentration of 10^−7 mol/ml.
Testing of compounds 23, 24, 32, 33, 40 and 41 for their capacity to induce cell-mediated cytotoxicity of human eripheral blood mononuclear cells (PBMCs) is shown in FIGS. 27 and 28. All donors were healthy. […] The cytotoxicity of untreated controls (30.5%) was renormalized to 100%.

The subject of series [6] is Friend leukemia virus (FLV). Description: Friend leukemia virus infection: survival, TER-119+ cells, spleen.

`CC(=O)N[C@@H]1[C@@H](O[C@H](C)C(=O)N[C@@H](C)C(=O)N[C@H](CCC(=O)O)C(N)=O)[C@H](O)[C@@H](CO)O[C@H]1O` [MDP, muramyldipeptide]: the “+ΔTmax (Sum of ΔTmax)” value in series [1] (MDP positive control 25 μg/kg (50.7 nmol/kg), liposomal or free) was 2.9 °C. Besides, in series [2], the “Restoration of BM Proliferation in Immunosuppressive Therapy” value (“Restoration of BM Proliferation” below) is “+”. Also, the “Positive animals (%) (incidence of EAE)” value in series [3] amounted to 58%.
With `CCCCCCCCCCCCCCC(CCCCCCCCCCCCCC)C(=O)NCCCC[C@H](NC(=O)CC[C@@H](NC(=O)[C@H](CC)NC(=O)CO[C@H]1[C@H](O[C@@H]2O[C@H](CO)[C@@H](O)[C@H](O)[C@H]2NC(C)=O)[C@@H](CO)OC(O)[C@@H]1NC(C)=O)C(N)=O)C(=O)O` (stereo partly drawn) [Compound 41, N-[2-O-(2-Acetamido-2-deoxy-β-D-glucopyranosyl-(1→4)-2-acetamido-2,3-dideoxy-D-glucopyranose-3-yl)-glycoloyl]-L-α-aminobutanoyl-D-isoglutaminyl-L-lysine(2-tetradecylhexadecanoyl)], the “+ΔTmax (Sum of ΔTmax)” value in series [1] (liposomal preparations s.c. 100 nmol/kg, passes if below 1.1° C.) stood at 0.8 °C. In series [4], the “Day 6 Intest.: clear/infected/dead” value is reported as 2/3/0, the “Day 6 Liver: clear/infected/dead” value is given as 2/3/0, the “Day 6 Lungs: clear/infected/dead” value was 4/1/0 and the “Day 6 Spleen: clear/infected/dead” value was 2/3/0. For the same compound, in series [4], the “Day 12 Intest.: clear/infected/dead” value is 1/2/2, the “Day 12 Liver: clear/infected/dead” value is given as 2/1/2, the “Day 12 Lungs: clear/infected/dead” value is listed as 2/1/2 and the “Day 12 Spleen: clear/infected/dead” value is recorded as 2/1/2. Besides, the “dose response of NK cell activity” value in series [5] was “negative dose response”. The “survival, late phase (days 55 and 59), long-term” value in series [6] (10 μmol i.p., non-liposomal, control 0%, FIG. 23) is reported as “ensure long-term survival”. In addition, in series [6] (10 μmol i.p., non-liposomal, saline control 82%, FIG. 23), the “survival, early phase (day 43)” value is “survival rate worse than control”. The “clonal expansion of TER-119+ erythroleukaemia cells in spleen” value in series [6] (day 16, FIG. 24) is “pronounced opposite effect”. Further, the “spleen size (weight)” value in series [6] (day 16, FIG. 25) is given as “increased spleen size”.
With `CC[C@H](NC(=O)CO[C@H]1[C@H](O[C@@H]2O[C@H](CO)[C@@H](O)[C@H](O)[C@H]2NC(C)=O)[C@@H](CO)OC(O)[C@@H]1NC(C)=O)C(=O)N[C@H](CCC(=O)O)C(N)=O` (some centres unmarked) [norAbu-GMDP], in series [2], the “Restoration of BM Proliferation” value is on record as “++”. Further, the “Positive animals (%) (incidence of EAE)” value in series [3] turned out to be 90%. Further, the “Th1 stimulation (EAE)” value in series [3] (guinea pigs sensitized with bovine MBP in IFA + compound, FIG. 31) is “superior to MDP and GMDP as Th1 adjuvants”.
On to `CC(=O)N[C@H]1[C@H](O[C@H]2[C@H](O[C@H](C)C(=O)N[C@@H](C)C(=O)N[C@H](CCC(=O)O)C(N)=O)[C@@H](NC(C)=O)C(O)O[C@@H]2CO)O[C@H](CO)[C@@H](O)[C@@H]1O` (some centres unmarked) [GMDP, glucosaminylmuramyl dipeptide], for which the “Restoration of BM Proliferation” value in series [2] was “++”. The “Positive animals (%) (incidence of EAE)” value in series [3] is reported as 65%.
For `CCC(NC(=O)COC1C(O)C(CO)OC(O)C1NC(C)=O)C(=O)NC(CCC(=O)O)C(N)=O` (centres unmarked) [norAbu-MDP], in series [2], the “Restoration of BM Proliferation” value was “+”.
